According to publication PMC7265341, “Quantifying CDK inhibitor selectivity in live cells” (Nature Communications, 2020):
Where two headings read alike, the source gives them in different places.

Experiments:
[1] = target: CDK6/Cyclin D1 (Homo sapiens, UniProt Q00534); test: NanoBRET live-cell target engagement, NanoLuc-CDK6/Cyclin D1 in HEK-293; assay type: binding; conditions: CDK6/D1, 10µM
[2] = target: CDK8/Cyclin C (Homo sapiens, UniProt P49336); test: NanoBRET live-cell target engagement, NanoLuc-CDK8/Cyclin C in HEK-293; assay type: binding; conditions: CDK8/C, 10µM
[3] = target: CDK17/Cyclin Y (Homo sapiens, UniProt Q00537); test: NanoBRET live-cell target engagement, CDK17-NanoLuc/Cyclin Y in HEK-293; assay type: binding; conditions: 10µM
[4] = target: CDK9/Cyclin K (Homo sapiens, UniProt P50750); test: NanoBRET live-cell target engagement, NanoLuc-CDK9/Cyclin K in HEK-293; assay type: binding; conditions: CDK9/K, 10µM
[5] = target: CDK1/Cyclin E1 (Homo sapiens, UniProt P06493); test: NanoBRET live-cell target engagement, CDK1-NanoLuc/Cyclin E1 in HEK-293; assay type: binding; conditions: CDK1/E1, 10µM
[6] = target: CDK19/Cyclin C (Homo sapiens, UniProt Q9BWU1); test: NanoBRET live-cell target engagement, NanoLuc-CDK19/Cyclin C in HEK-293; conditions: 10µM
[7] = target: CDK16/Cyclin Y (Homo sapiens, UniProt Q00536); test: NanoBRET live-cell target engagement, CDK16-NanoLuc/Cyclin Y in HEK-293; assay type: binding; conditions: 10µM
[8] = target: CDK5/CDK5R1 (Homo sapiens, UniProt Q00535); test: NanoBRET live-cell target engagement, CDK5-NanoLuc/CDK5R1 in HEK-293; assay type: binding; conditions: CDK5/CDK5R1, 10µM
[9] = target: CDK15/Cyclin Y (Homo sapiens, UniProt Q96Q40); test: NanoBRET live-cell target engagement, NanoLuc-CDK15/Cyclin Y in HEK-293; assay type: binding; conditions: 10µM
[10] = target: CDK13/Cyclin K (Homo sapiens, UniProt Q14004); test: NanoBRET live-cell target engagement, CDK13-NanoLuc/Cyclin K in HEK-293; assay type: binding; conditions: CDK13/K, 10µM
[11] = target: T1, CDK11A/Cyclin L2 (Homo sapiens, UniProt Q9UQ88); test: NanoBRET live-cell target engagement, CDK11A-NanoLuc/Cyclin L2 in HEK-293; assay type: binding; conditions: 10µM
T1 sequence (Q9UQ88 1-783): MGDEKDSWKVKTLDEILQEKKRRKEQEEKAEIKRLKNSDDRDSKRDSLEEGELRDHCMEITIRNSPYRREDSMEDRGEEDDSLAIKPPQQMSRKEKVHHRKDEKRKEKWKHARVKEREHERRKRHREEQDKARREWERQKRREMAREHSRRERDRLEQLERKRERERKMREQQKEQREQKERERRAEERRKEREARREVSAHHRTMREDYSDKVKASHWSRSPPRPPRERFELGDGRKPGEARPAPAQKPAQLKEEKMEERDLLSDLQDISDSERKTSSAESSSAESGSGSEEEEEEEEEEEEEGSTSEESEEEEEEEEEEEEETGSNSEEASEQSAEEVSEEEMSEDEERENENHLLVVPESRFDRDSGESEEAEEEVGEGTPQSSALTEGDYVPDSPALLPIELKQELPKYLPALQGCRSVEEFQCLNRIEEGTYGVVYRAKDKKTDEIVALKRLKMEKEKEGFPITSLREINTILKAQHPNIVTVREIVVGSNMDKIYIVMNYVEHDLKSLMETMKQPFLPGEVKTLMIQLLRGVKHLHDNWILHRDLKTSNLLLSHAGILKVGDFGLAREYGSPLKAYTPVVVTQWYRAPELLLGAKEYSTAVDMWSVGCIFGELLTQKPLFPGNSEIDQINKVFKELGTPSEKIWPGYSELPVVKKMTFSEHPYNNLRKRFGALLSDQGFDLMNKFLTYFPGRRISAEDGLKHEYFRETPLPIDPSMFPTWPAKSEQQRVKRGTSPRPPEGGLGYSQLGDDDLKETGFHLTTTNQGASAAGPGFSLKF

[12] = target: CDK18/Cyclin Y (Homo sapiens, UniProt Q07002); test: NanoBRET live-cell target engagement, CDK18-NanoLuc/Cyclin Y in HEK-293; assay type: binding; conditions: 10µM
[13] = target: CDK12/Cyclin K (Homo sapiens, UniProt Q9NYV4); test: NanoBRET live-cell target engagement, CDK12-NanoLuc/Cyclin K in HEK-293; assay type: binding; conditions: 10µM
[14] = target: CDK4/Cyclin D1 (Homo sapiens, UniProt P11802); test: NanoBRET live-cell target engagement, NanoLuc-CDK4/Cyclin D1 in HEK-293; assay type: binding; conditions: CDK4/D1, 10µM
[15] = target: CDK10/Cyclin L2 (Homo sapiens, UniProt Q15131); test: NanoBRET live-cell target engagement, CDK10-NanoLuc/Cyclin L2 in HEK-293; conditions: 10µM
[16] = target: CDK2/Cyclin E1 (Homo sapiens, UniProt P24941); test: NanoBRET live-cell target engagement, CDK2-NanoLuc/Cyclin E1 in HEK-293; assay type: binding; conditions: CDK2/E1, 10µM
[17] = target: CDK3/Cyclin E1 (Homo sapiens, UniProt Q00526); test: NanoBRET live-cell target engagement, CDK3-NanoLuc/Cyclin E1 in HEK-293; assay type: binding; conditions: CDK3/E1, 10µM
[18] = target: CDK20/Cyclin H (Homo sapiens, UniProt Q8IZL9); test: NanoBRET live-cell target engagement, NanoLuc-CDK20/Cyclin H in HEK-293; assay type: binding; conditions: 10µM
[19] = target: CDK11B/Cyclin L2 (Homo sapiens, UniProt P21127); test: NanoBRET live-cell target engagement, CDK11B-NanoLuc/Cyclin L2 in HEK-293; assay type: binding; conditions: 10µM
[20] = average of replicates, read-out: Inhibition at 10µM (%) Average
[21] = read-out: Inhibition at 10µM (%) Replicate 1
[22] = read-out: Inhibition at 10µM (%) Replicate 2

CDK19/Cyclin C, sequence (Q9BWU1 whole entry): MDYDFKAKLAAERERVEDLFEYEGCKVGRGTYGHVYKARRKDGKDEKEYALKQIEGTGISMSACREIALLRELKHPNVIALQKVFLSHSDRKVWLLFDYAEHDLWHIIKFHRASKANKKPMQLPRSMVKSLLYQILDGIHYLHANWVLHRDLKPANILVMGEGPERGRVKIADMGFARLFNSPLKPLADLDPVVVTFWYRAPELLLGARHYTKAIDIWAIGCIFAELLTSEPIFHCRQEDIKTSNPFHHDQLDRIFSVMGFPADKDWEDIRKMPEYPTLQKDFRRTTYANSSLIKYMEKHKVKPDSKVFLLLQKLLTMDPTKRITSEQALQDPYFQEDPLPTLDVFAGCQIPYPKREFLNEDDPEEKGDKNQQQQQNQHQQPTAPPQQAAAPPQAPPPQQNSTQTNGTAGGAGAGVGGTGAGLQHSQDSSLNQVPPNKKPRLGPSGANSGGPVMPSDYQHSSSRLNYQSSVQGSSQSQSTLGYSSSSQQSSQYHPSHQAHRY
CDK19/Cyclin C, sequence (P24863 whole entry partner): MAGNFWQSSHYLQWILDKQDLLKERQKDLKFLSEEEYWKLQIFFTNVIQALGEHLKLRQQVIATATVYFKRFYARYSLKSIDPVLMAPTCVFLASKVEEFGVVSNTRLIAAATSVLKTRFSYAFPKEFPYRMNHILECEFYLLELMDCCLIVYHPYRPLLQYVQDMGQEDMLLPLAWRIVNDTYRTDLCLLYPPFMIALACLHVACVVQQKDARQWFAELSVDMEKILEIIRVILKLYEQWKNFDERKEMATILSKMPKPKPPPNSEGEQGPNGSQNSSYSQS
CDK9/Cyclin K, sequence (P50750 whole entry): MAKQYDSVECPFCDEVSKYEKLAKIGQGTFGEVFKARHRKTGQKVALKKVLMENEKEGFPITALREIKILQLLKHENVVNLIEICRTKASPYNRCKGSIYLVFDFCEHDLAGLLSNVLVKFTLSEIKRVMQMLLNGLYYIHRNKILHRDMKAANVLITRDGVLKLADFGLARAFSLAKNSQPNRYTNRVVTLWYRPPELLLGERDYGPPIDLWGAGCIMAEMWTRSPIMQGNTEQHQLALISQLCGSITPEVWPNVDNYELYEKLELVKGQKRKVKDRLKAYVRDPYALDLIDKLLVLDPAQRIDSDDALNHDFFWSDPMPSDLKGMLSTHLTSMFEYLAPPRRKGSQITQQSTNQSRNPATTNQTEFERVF
CDK9/Cyclin K, sequence (O75909 whole entry partner): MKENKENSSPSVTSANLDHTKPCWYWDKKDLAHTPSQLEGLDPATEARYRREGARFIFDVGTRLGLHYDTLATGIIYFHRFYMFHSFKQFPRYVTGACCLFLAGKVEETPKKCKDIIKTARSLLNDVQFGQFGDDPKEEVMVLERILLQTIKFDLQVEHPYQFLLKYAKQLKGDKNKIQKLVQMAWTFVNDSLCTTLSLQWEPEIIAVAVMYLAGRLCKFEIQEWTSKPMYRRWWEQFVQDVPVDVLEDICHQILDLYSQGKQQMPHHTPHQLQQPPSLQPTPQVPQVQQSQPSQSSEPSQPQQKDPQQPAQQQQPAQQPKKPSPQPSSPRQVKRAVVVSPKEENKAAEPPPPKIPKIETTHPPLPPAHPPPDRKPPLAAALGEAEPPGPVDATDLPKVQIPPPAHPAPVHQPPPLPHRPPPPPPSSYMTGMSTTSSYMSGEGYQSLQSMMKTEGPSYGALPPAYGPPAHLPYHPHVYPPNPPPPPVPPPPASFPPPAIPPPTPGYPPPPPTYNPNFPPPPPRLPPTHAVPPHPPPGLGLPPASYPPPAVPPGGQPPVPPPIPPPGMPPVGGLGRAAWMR
CDK13/Cyclin K, sequence (O75909 whole entry): as the sequence (O75909 whole entry partner) above
CDK13/Cyclin K, sequence (Q14004 other isoform, or with tags, fused parts or gaps): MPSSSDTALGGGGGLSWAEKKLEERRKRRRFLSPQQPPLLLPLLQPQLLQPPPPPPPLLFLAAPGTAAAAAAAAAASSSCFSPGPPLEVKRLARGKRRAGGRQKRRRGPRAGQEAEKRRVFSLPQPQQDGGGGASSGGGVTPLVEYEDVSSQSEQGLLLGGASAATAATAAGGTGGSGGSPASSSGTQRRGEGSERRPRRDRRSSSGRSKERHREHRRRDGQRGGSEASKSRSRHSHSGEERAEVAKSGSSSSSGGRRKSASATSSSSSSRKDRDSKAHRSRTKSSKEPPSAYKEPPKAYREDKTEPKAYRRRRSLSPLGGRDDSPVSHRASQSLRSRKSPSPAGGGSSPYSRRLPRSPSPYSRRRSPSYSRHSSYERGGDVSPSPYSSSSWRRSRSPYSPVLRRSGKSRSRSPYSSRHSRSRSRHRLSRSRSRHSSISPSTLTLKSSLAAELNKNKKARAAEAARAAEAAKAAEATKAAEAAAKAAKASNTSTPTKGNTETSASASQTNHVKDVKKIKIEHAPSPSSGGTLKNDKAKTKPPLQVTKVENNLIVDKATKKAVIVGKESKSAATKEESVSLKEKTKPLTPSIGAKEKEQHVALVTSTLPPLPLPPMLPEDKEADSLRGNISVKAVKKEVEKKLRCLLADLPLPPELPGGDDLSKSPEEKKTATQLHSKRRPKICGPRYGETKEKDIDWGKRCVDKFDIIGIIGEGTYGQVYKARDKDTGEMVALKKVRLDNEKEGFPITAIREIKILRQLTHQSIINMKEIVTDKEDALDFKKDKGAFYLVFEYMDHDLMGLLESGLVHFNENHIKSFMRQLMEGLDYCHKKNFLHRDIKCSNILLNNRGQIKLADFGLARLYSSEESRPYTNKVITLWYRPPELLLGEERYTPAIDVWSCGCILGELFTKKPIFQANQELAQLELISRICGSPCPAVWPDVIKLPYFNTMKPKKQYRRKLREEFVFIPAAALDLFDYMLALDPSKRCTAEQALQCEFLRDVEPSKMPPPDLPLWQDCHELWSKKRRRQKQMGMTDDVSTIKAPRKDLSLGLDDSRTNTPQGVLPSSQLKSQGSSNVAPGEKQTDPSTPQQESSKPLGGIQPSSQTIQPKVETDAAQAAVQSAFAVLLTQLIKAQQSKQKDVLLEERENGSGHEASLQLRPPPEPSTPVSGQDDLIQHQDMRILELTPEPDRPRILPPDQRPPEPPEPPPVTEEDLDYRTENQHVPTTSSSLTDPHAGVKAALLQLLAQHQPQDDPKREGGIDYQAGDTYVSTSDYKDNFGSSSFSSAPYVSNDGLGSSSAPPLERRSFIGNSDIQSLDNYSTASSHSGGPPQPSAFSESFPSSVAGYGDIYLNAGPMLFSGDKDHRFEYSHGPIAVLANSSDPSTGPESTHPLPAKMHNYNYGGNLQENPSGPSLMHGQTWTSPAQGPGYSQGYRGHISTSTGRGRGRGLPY
CDK12/Cyclin K, sequence (Q9NYV4 1-1481 isoform Q9NYV4-2): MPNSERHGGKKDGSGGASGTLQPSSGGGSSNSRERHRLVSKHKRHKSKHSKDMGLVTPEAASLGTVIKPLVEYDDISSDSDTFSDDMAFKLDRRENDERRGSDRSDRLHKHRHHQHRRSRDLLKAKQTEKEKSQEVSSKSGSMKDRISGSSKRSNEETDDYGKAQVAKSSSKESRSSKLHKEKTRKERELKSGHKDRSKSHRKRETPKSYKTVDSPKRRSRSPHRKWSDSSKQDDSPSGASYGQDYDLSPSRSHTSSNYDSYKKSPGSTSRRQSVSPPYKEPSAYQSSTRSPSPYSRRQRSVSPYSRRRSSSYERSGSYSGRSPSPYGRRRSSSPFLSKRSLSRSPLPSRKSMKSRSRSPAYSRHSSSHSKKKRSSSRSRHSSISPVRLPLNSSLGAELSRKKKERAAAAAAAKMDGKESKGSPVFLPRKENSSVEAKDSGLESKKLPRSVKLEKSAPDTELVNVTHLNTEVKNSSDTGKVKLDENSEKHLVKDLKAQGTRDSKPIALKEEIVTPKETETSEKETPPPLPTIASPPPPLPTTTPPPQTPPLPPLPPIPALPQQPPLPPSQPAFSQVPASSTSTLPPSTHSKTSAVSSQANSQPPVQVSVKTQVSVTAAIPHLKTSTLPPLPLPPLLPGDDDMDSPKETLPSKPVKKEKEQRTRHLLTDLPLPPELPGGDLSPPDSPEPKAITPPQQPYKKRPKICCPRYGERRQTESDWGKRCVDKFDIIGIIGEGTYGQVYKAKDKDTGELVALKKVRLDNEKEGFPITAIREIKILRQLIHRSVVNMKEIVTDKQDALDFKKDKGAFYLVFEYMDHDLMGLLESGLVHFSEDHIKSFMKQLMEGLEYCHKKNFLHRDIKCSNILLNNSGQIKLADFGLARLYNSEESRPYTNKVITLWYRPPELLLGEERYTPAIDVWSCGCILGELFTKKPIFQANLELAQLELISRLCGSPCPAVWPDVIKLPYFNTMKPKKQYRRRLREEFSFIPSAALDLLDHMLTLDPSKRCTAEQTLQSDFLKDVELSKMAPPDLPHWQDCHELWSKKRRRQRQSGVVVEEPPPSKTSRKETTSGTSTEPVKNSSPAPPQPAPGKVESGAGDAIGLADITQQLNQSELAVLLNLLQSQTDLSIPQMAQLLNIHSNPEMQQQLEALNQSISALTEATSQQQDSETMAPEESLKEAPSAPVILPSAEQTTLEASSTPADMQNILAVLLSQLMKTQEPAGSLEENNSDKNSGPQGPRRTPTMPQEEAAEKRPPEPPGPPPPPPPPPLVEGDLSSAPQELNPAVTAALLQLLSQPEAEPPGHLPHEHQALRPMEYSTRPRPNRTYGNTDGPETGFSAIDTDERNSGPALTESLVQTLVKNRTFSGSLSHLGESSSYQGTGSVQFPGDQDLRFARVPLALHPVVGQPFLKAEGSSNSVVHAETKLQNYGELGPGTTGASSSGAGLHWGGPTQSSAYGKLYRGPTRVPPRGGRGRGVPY
CDK12/Cyclin K, sequence (O75909 whole entry partner): as the sequence (O75909 whole entry partner) above

Which results are given for `CC(C)c1cnn2c(NCc3ccccc3)cc(NCCCCCCN)nc12` [BS-181]?
inhibition at 10 µM [1, 20]: 8.7%; inhibition at 10 µM [1, 21]: 1.8%; inhibition at 10 µM [1, 22]: 15.5%; inhibition at 10 µM [2, 20]: -11.6%; inhibition at 10 µM [2, 21]: 2.3%; inhibition at 10 µM [2, 22]: -25.4%; inhibition at 10 µM ([3]; read-out: Inhibition at 10µM (%) Average, CDK17/Y, average of replicates): 36.6%; inhibition at 10 µM ([3]; read-out: Inhibition at 10µM (%) Replicate 1, CDK17/Y): 38.2%; inhibition at 10 µM ([3]; read-out: Inhibition at 10µM (%) Replicate 2, CDK17/Y): 35.1%; inhibition at 10 µM [4, 20]: 35.3%; inhibition at 10 µM [4, 21]: 28.8%; inhibition at 10 µM [4, 22]: 41.8%; inhibition at 10 µM [5, 20]: 45%; inhibition at 10 µM [5, 21]: 45.2%; inhibition at 10 µM [5, 22]: 44.8%; inhibition at 10 µM ([6]; read-out: Inhibition at 10µM (%) Average, CDK19/C, average of replicates): -1.8%; inhibition at 10 µM ([6]; read-out: Inhibition at 10µM (%) Replicate 1, CDK19/C): 15%; inhibition at 10 µM ([6]; read-out: Inhibition at 10µM (%) Replicate 2, CDK19/C): -18.6%; inhibition at 10 µM ([7]; read-out: Inhibition at 10µM (%) Replicate 1, CDK16/Y): 40.1%; inhibition at 10 µM ([7]; read-out: Inhibition at 10µM (%) Replicate 2, CDK16/Y): 26.4%; inhibition at 10 µM [8, 20]: 29.3%; inhibition at 10 µM [8, 21]: 26.8%; inhibition at 10 µM [8, 22]: 31.7%; inhibition at 10 µM ([9]; read-out: Inhibition at 10µM (%) Average, CDK15/Y, average of replicates): 33.2%; inhibition at 10 µM ([9]; read-out: Inhibition at 10µM (%) Replicate 1, CDK15/Y): 36.4%; inhibition at 10 µM ([9]; read-out: Inhibition at 10µM (%) Replicate 2, CDK15/Y): 30%; inhibition at 10 µM [10, 20]: 23.8%; inhibition at 10 µM [10, 21]: 28.9%; inhibition at 10 µM [10, 22]: 18.6%; inhibition at 10 µM ([11]; read-out: Inhibition at 10µM (%) Average, CDK11a/L2, average of replicates): 33.7%; inhibition at 10 µM ([11]; read-out: Inhibition at 10µM (%) Replicate 1, CDK11a/L2): 34.5%; inhibition at 10 µM ([11]; read-out: Inhibition at 10µM (%) Replicate 2, CDK11a/L2): 32.9%; inhibition at 10 µM ([12]; read-out: Inhibition at 10µM (%) Average, CDK18/Y, average of replicates): 47.7%; inhibition at 10 µM ([12]; read-out: Inhibition at 10µM (%) Replicate 1, CDK18/Y): 44.6%; inhibition at 10 µM ([12]; read-out: Inhibition at 10µM (%) Replicate 2, CDK18/Y): 50.8%; inhibition at 10 µM ([13]; read-out: Inhibition at 10µM (%) Average, CDK12/K, average of replicates): 25.8%; inhibition at 10 µM ([13]; read-out: Inhibition at 10µM (%) Replicate 1, CDK12/K): 20.3%; inhibition at 10 µM ([13]; read-out: Inhibition at 10µM (%) Replicate 2, CDK12/K): 31.4%; inhibition at 10 µM [14, 20]: 43.3%; inhibition at 10 µM [14, 21]: 30.9%; inhibition at 10 µM [14, 22]: 55.8%; inhibition at 10 µM ([15]; read-out: Inhibition at 10µM (%) Average, CDK10/L2, average of replicates): 31.2%; inhibition at 10 µM ([15]; read-out: Inhibition at 10µM (%) Replicate 1, CDK10/L2): 25.6%; inhibition at 10 µM ([15]; read-out: Inhibition at 10µM (%) Replicate 2, CDK10/L2): 36.7%; inhibition at 10 µM [16, 20]: 46.6%; inhibition at 10 µM [16, 21]: 49.2%; inhibition at 10 µM [16, 22]: 44%; inhibition at 10 µM [17, 20]: 58.3%; inhibition at 10 µM [17, 21]: 56.9%; inhibition at 10 µM [17, 22]: 59.7%; inhibition at 10 µM ([18]; CDK20/H, read-out: Inhibition at 10µM (%) Replicate 1): 18.7%; inhibition at 10 µM ([18]; read-out: Inhibition at 10µM (%) Replicate 2, CDK20/H): 23.8%; inhibition at 10 µM ([19]; read-out: Inhibition at 10µM (%) Average, CDK11b/L2, average of replicates): 23.5%; inhibition at 10 µM ([19]; read-out: Inhibition at 10µM (%) Replicate 1, CDK11b/L2): 20.6%; inhibition at 10 µM ([19]; read-out: Inhibition at 10µM (%) Replicate 2, CDK11b/L2): 26.5%
